# “Also recorded” adds a separate entry of the source. Like-named read-outs stand apart in the source and are kept apart here.
# Key:
# [1] = system: type 1 herpes simplex virus; conditions: cited from earlier work
# [2] = system: P388 lymphocytic leukemia; experiment: P388 lymphocytic leukemia in vivo, median survival, 30-day test (Examples 7 and 8); design: species or system CD2 F1 female mice; conditions: for Percent Treated Animals/Control Animals / Treated Group Survival Time (median): Ex. 7a/8, saline with tween/80; for Treated Group Survival Time (median): control 12.6
# Method: For examples 7 and 8, CD2 F1 female mice were used and challenged with P388 lymphocytic leukemia tumors. […] The test period was for thirty days in both Examples 7 and 8.
# For Examples 7 and 8, as well as Examples 9 and 10 below, any animal of the drug treated group which survived beyond the end of the testing period was then evaluated and placed in one of three groups. The first group was designated as cured, meaning the animal was successfully cured of the tumor. The second group designation was no-takes, meaning survival of the animal was considered to be due to failure of tumor implant. The remaining group was designated as tumor survivors meaning the animals lived beyond the test cut-off date but could not be classified as either cured or no-takes.
# For both Examples 7 and 8, thirty animals were used as the control group and six animals each were used at each dose level indicated in tables 3 and 4 below in the drug treated groups. In both Examples 7 and 8, for both the control group and the drug treated groups, tumors were induced by IP inoculation of tumor seed cells on day zero followed by initiation of drug treatment on day one. For both Examples 7a and 8, saline with tween/80 was used as the drug vehicle. For Examples 7b and 7c, water was used as the drug vehicle.
# In both the control group and the drug treated group in Examples 7 and 8, the test animals were inoculated on day zero IP with 10^6 seed cells of P388 lymphocytic leukemia. In both Examples 7 and 8, treatment of the drug group was started on day one and the drug was given IP once daily for nine days. Day six was utilized as the cut-off data for death attributable to toxicity of the drug. […] Efficacy of treatment was determined by comparing median survival time of the drug treated animals compared to median survival time of the control animals, and is expressed as percentage increase of treated animals/control animals (T/C) as per Example 5.
# In this example drug treated animals were injected IP with the dose level noted in Table 3 below. Six animals were treated at each dose level. No control animals survived beyond day 18 with a median death date of day 12.6.
# This examples was performed as per Example 7a at dose levels as noted in table 3b below. A survivor at both the 700 and 800 mg/Kg level was judged as cured. No controls survived beyond day 12 and the mean death day of the control group was day 11.
# This example was run as per Example 7a above at dose levels noted in Table 3c below. All controls were dead by day 14 with a mean death day of day 11.9. At the 500 mg/Kg level, one animal was judged as a cure.
# Compound 2, 2-(2,3,5-tri-O-acetyl-β-D-ribofuranosyl)thiazole-4-carboxamide was tested as per Example 7a above at dose levels noted in Table 4 below. No controls survived beyond day 18 with an average death date of day 12.6.
# [3] = system: P388 lymphocytic leukemia; assay type: in vivo, CD2 F1 female mice; conditions: for Percent Treated Animals/Control Animals / Treated Group Survival Time (mean): nine days; for Treated Group Survival Time (mean): control 10.2
# Description: Compound 2, 2-(2,3,5-tri-O-acetyl-β-D-ribofuranosyl)thiazole-4-carboxamide was screened in a manner similar to that shown in Example 5, however, the tumor system used as the test tumor was P388 lymphocytic leukemia. 10^6 seed cells were used to initiate the tumor in both the control group and the drug treated group of animals. The same strain of mice was used except female mice were substituted for males. Test results were based on mean survival time and are expressed as T/C percentages (treated animals/control animals) as per Example 5.
# In the drug treated animals, treatment was initiated one day after tumor inoculation and the drug was given at the dose levels noted below in table 2. Drug treatment was for nine days and drug toxicity, as in Example 5, was measured on day six.
# Average day of death for the control group was 10.2 days whereas at the lowest level of drug treatment the treated animals survived for more than 15 days. As with Example 5, 125% increase in longevity of treated animals over control animals was taken as indicative of positive drug response.
# [4] = system: type 3 parainfluenza virus; conditions: cited from earlier work
# malignant tumors [5] = experiment: antitumor activity in vivo (general statements); conditions: summary statements
# virus = conditions: cited from earlier work
# type 3 rhinovirus = conditions: cited from earlier work
# L-1210 lymphoid leukemia = L-1210 lymphoid leukemia in vivo, mean survival (Example 11); design: species or system CD2 F1 male mice; conditions: for Percent Treated Animals Control Animals / Treated Group Survival Time (mean): saline
# Description: For Example 9a and 9b, CD2 F1 male mice were used and challenged with L-1210 lymphoid leukemia. […] The test period was for thirty days. Test results are expressed as T/C as per Example 5.
# In both the control groups and the drug treated groups in Examples 9a and 9b, the test animals were inoculated on day zero IP with 10^6 seed cells of L-1210 lymphoid leukemia. For Example 9a, drug treatment was started on day one and compound 1 given once daily for nine days. Day five was utilized as the cutoff date for death attributable to toxicity of the drug. […] Efficacy of treatment was determined by comparing mean survival time of drug treated animals with mean survival time of the control animals and is expressed as percentage increase of treated animals/control animals (T/C) as per Example 5.
# The compound test dosage levels are as noted in tables 7a and 7b below for Example 11a and 11b respectively. In these examples, thirty-six control animals were used and six test animals each at the drug dose levels as is shown in tables 7a and 7b. Saline was used as the drug vehicle.
# For both the control groups and the drug test groups, tumors were induced by IP inoculation of tumor seed cells on day zero followed by initiation of drug treatment on day one wherein compound 3 was given once daily for 5 days. Test results are expressed as T/C as per example 5.
# malignant tumors [6] = conditions: known from literature; cited from earlier work
# viruses = conditions: cited from earlier work
smiles,measurement,setting,value
"CC(=O)OC[C@H]1O[C@@H](c2nc(C(N)=O)cs2)[C@H](OC(C)=O)[C@@H]1OC(C)=O [Compound 2, 2-(2,3,5-Tri-O-Acetyl-β-D-Ribofuranosyl)thiazole-4-Carboxamide]",in vitro antiviral activity,[1],only moderate activity
same,Percent Treated Animals/Control Animals,[2]; 12.5 mg/Kg IP once daily x9,110%
same,Treated Group Survival Time (median),[2]; 12.5 mg/Kg IP once daily x9,13.7 days
same,Percent Treated Animals/Control Animals,[2]; 25 mg/Kg IP once daily x9,113%
same,Treated Group Survival Time (median),[2]; 25 mg/Kg IP once daily x9,14.3 days
same,Percent Treated Animals/Control Animals,[2]; 50 mg/Kg IP once daily x9,121%
same,Treated Group Survival Time (median),[2]; 50 mg/Kg IP once daily x9,15.3 days
same,Percent Treated Animals/Control Animals,[2]; 100 mg/Kg IP once daily x9,145%
same,Treated Group Survival Time (median),[2]; 100 mg/Kg IP once daily x9,18.3 days
same,Percent Treated Animals/Control Animals,[2]; 200 mg/Kg IP once daily x9,150%
same,Treated Group Survival Time (median),[2]; 200 mg/Kg IP once daily x9,19.0 days
same,Percent Treated Animals/Control Animals,[2]; 400 mg/Kg IP once daily x9,161%
same,Treated Group Survival Time (median),[2]; 400 mg/Kg IP once daily x9,20.3 days
same,surviving animals judged as no-take,"[2]; Ex. 7a/8, 50 mg/Kg, thirty days",one surviving animal was judged as a no-take
same,activity against P388 lymphocytic leukemia,"[2]; Examples 7 and 8, multiple dose",active antitumor agents; also recorded: active against P388 lymphocytic leukemia
same,DN 2 (Decision Network) criteria of the National Cancer Institute,[2]; P388,successfully passed
same,Percent Treated Animals/Control Animals,[3]; 50 mg/Kg IP,150%
same,Treated Group Survival Time (mean),[3]; 50 mg/Kg IP,15.3 days
same,Percent Treated Animals/Control Animals,[3]; 100 mg/Kg IP,176%
same,Treated Group Survival Time (mean),[3]; 100 mg/Kg IP,18.0 days
same,Percent Treated Animals/Control Animals,[3]; 200 mg/Kg IP,179%
same,Treated Group Survival Time (mean),[3]; 200 mg/Kg IP,18.3 days
same,survival of treated animals,"[3]; lowest level of drug treatment, control 10.2 days",more than 15 days
same,in vitro antiviral activity,[4],negative
same,antitumor activity,malignant tumors [5],effective antitumor agent when injected intraperitoneally
same,number of deaths of test animals vs placebo control animals,virus; in vivo antiviral tests,equal to or exceeded the number of deaths of the placebo control animals
same,in vivo antiviral activity,virus; in vivo,negative
same,in vitro antiviral activity,type 3 rhinovirus,negative
"NC(=O)c1csc([C@@H]2O[C@H](COP(=O)(O)O)[C@@H](O)[C@H]2O)n1 [Compound 3, 2-(5-O-Phosphoryl-β-D-Ribofuranosyl)thiazole-4 Carboxamide]",Percent Treated Animals Control Animals,"L-1210 lymphoid leukemia; Ex. 11a, 50 mg/Kg once daily x5",136%
same,Treated Group Survival Time (mean),"L-1210 lymphoid leukemia; Ex. 11a, 50 mg/Kg once daily x5, control 8.3",11.3 days
same,Percent Treated Animals Control Animals,"L-1210 lymphoid leukemia; Ex. 11a, 100 mg/Kg once daily x5",186%
same,Treated Group Survival Time (mean),"L-1210 lymphoid leukemia; Ex. 11a, 100 mg/Kg once daily x5, control 8.3",15.5 days
same,Percent Treated Animals Control Animals,"L-1210 lymphoid leukemia; Ex. 11a, 200 mg/Kg once daily x5",259%
same,Treated Group Survival Time (mean),"L-1210 lymphoid leukemia; Ex. 11a, 200 mg/Kg once daily x5, control 8.3",21.5 days
same,Percent Treated Animals Control Animals,"L-1210 lymphoid leukemia; Ex. 11a, 400 mg/Kg once daily x5",183%
same,Treated Group Survival Time (mean),"L-1210 lymphoid leukemia; Ex. 11a, 400 mg/Kg once daily x5, control 8.3",15.2 days
same,Percent Treated Animals Control Animals,"L-1210 lymphoid leukemia; Ex. 11a, 800 mg/Kg once daily x5",196%
same,Treated Group Survival Time (mean),"L-1210 lymphoid leukemia; Ex. 11a, 800 mg/Kg once daily x5, control 8.3",16.3 days
same,Percent Treated Animals Control Animals,"L-1210 lymphoid leukemia; Ex. 11b, 50 mg/Kg once daily x5",128%
same,Treated Group Survival Time (mean),"L-1210 lymphoid leukemia; Ex. 11b, 50 mg/Kg once daily x5, control 10.1",13.0 days
same,Percent Treated Animals Control Animals,"L-1210 lymphoid leukemia; Ex. 11b, 100 mg/Kg once daily x5",121%
same,Treated Group Survival Time (mean),"L-1210 lymphoid leukemia; Ex. 11b, 100 mg/Kg once daily x5, control 10.1",12.3 days
same,Percent Treated Animals Control Animals,"L-1210 lymphoid leukemia; Ex. 11b, 200 mg/Kg once daily x5",145%
same,Treated Group Survival Time (mean),"L-1210 lymphoid leukemia; Ex. 11b, 200 mg/Kg once daily x5, control 10.1",14.7 days
same,Percent Treated Animals Control Animals,"L-1210 lymphoid leukemia; Ex. 11b, 400 mg/Kg once daily x5",155%
same,Treated Group Survival Time (mean),"L-1210 lymphoid leukemia; Ex. 11b, 400 mg/Kg once daily x5, control 10.1",15.7 days
same,Percent Treated Animals Control Animals,"L-1210 lymphoid leukemia; Ex. 11b, 600 mg/Kg once daily x5",160%
same,Treated Group Survival Time (mean),"L-1210 lymphoid leukemia; Ex. 11b, 600 mg/Kg once daily x5, control 10.1",16.2 days
same,activity against L-1210 lymphoid leukemia,L-1210 lymphoid leukemia; Examples 11a and 11b,active against L-1210 lymphoid leukemia
same,drug toxicity,"L-1210 lymphoid leukemia; Examples 11a and 11b, 50-800 mg/Kg",No drug toxicity was noted
same,antitumor activity,malignant tumors [5],effective in vivo antitumor agents
NC(=O)c1ncn([C@@H]2O[C@H](COP(=O)(O)O)[C@@H](O)[C@H]2O)n1 [RIBAVIRIN 5' monophosphate],antitumor activity,malignant tumors [6],inactive as antitumor compounds
"NC(=O)c1ncn([C@@H]2O[C@H](CO)[C@@H](O)[C@H]2O)n1 [RIBAVIRIN, reference compound]",in vitro antiviral activity,viruses,active in vitro antiviral agent
same,antitumor activity,malignant tumors [6],no significant antitumor activity
